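Values below derive from 48-hour exposures of cells grown in 96-well plates, with endpoints linearly interpolated between the two concentrations bracketing the appropriate inhibition level. Here, GI50 denotes the concentration required for 50% inhibition of growth.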 Calls of active or inactive are those of the source. No stated cut-off is given here; in the data, active = GI50 up to about 1.1 µM and inactive = higher.
Key:
Assay in all cases: NCI anticancer screen, dose series, 48 h
[1] = tested on: SNB-75
[2] = tested on: IGROV-1
[3] = tested on: MCF7
[4] = tested on: DMS-273
[5] = tested on: OVCAR-8
[6] = tested on: SNB-19
[7] = tested on: SK-OV-3
[8] = tested on: MOLT-4
[9] = tested on: SW-620
[10] = tested on: M14
[11] = tested on: HT-29
[12] = tested on: HCC 2998
[13] = tested on: RXF 393
[14] = tested on: COLO 205
[15] = tested on: OVCAR-3
[16] = tested on: 786-0
[17] = tested on: UO-31
[18] = tested on: UACC-62
[19] = tested on: HCT-15
[20] = tested on: HCT-116
[21] = tested on: SF-295
[22] = tested on: RPMI-8226
[23] = tested on: SF-268
[24] = tested on: NCI-H460
[25] = tested on: CCRF-CEM
[26] = tested on: M19-MEL
[27] = tested on: ACHN
[28] = tested on: A549
[29] = tested on: NCI-H226
[30] = tested on: LXFL 529
[31] = tested on: DLD-1
[32] = tested on: KM12
[33] = tested on: SF-539
[34] = tested on: HL-60
[35] = tested on: Malme-3M
[36] = tested on: LOX IMVI
[37] = tested on: SK-MEL-28
[38] = tested on: UACC-257
[39] = tested on: SN12C
[40] = tested on: NCI-H522
[41] = tested on: DMS-114
[42] = tested on: TK-10
[43] = tested on: K562
[44] = tested on: HOP-62
[45] = tested on: U-251
[46] = tested on: NCI-H23
[47] = tested on: KM-20L2
[48] = tested on: EKVX
[49] = tested on: SNB-78
[50] = tested on: MDA-MB-435
[51] = tested on: SK-MEL-5
[52] = tested on: HOP-92
[53] = tested on: CAKI-1
[54] = tested on: Hs-578T
[55] = tested on: MDA-MB-231
[56] = tested on: NCI/ADR-RES
[57] = tested on: DU-145
[58] = tested on: SK-MEL-2
[59] = tested on: PC-3
[60] = tested on: T47D
[61] = tested on: BT-549
[62] = tested on: A498
[63] = tested on: OVCAR-5
[64] = tested on: MDA-N
[65] = tested on: OVCAR-4
[66] = tested on: SR

NC(=O)c1cn(C2OC(CO)C(O)C2O)c2ncnc(N)c12 (configuration not stated)
GI50 [1]: 0.0422 µM (active)
GI50 [2]: 0.0885 µM (active)
GI50 [3]: 0.0902 µM (active)
GI50 [4]: 0.0381 µM (active)
GI50 [5]: 0.139 µM (active)

O=C1CC2CC=C[C@H]3c4cc5c(cc4C(=O)N1C23)OCO5 (some centres not stated)
GI50 [6]: > 50 µM (inactive)
GI50 [7]: > 50 µM (inactive)
GI50 [8]: > 50 µM (inactive)
GI50 [9]: > 50 µM (inactive)
GI50 [10]: > 50 µM (inactive)
GI50 [11]: > 50 µM (inactive)
GI50 [12]: > 50 µM (inactive)
GI50 [13]: > 50 µM (inactive)
GI50 [14]: > 50 µM (inactive)
GI50 [15]: > 50 µM (inactive)
GI50 [16]: > 50 µM (inactive)
GI50 [17]: > 50 µM (inactive)
GI50 [18]: > 50 µM (inactive)
GI50 [19]: > 50 µM
GI50 [20]: > 50 µM (inactive)
GI50 [21]: > 50 µM (inactive)
GI50 [22]: > 50 µM (inactive)
GI50 [1]: > 50 µM (inactive)
GI50 [23]: > 50 µM (inactive)
GI50 [24]: > 50 µM (inactive)
GI50 [2]: > 50 µM (inactive)
GI50 [25]: > 50 µM (inactive)
GI50 [26]: > 50 µM (inactive)
GI50 [27]: > 50 µM (inactive)
GI50 [28]: > 50 µM (inactive)
GI50 [29]: > 50 µM (inactive)
GI50 [30]: > 50 µM (inactive)
GI50 [31]: > 50 µM (inactive)
GI50 [32]: > 50 µM (inactive)
GI50 [33]: > 50 µM (inactive)
GI50 [4]: > 50 µM (inactive)
GI50 [34]: > 50 µM (inactive)
GI50 [35]: > 50 µM (inactive)
GI50 [36]: > 50 µM (inactive)
GI50 [37]: > 50 µM (inactive)
GI50 [38]: > 50 µM (inactive)
GI50 [39]: > 50 µM (inactive)
GI50 [5]: > 50 µM (inactive)
GI50 [40]: > 50 µM (inactive)
GI50 [41]: > 50 µM (inactive)
GI50 [42]: > 50 µM (inactive)
GI50 [43]: > 50 µM (inactive)
GI50 [44]: > 50 µM (inactive)
GI50 [45]: > 50 µM (inactive)
GI50 [46]: > 50 µM (inactive)
GI50 [47]: > 50 µM (inactive)
GI50 [48]: > 50 µM (inactive)
GI50 [49]: > 50 µM (inactive)

O=C1/C(=C\c2ccccc2)c2ccccc2N1Cc1ccccc1
GI50 [6]: 10.3 µM (inactive)
GI50 [7]: 11.1 µM (inactive)
GI50 [8]: 2.67 µM (inactive)
GI50 [9]: 9.84 µM (inactive)
GI50 [10]: 9.16 µM (inactive)
GI50 [11]: 6.15 µM (inactive)
GI50 [12]: 11.8 µM (inactive)
GI50 [13]: 10.4 µM (inactive)
GI50 [50]: 3.72 µM (inactive)
GI50 [14]: 16.6 µM (inactive)
GI50 [51]: 11 µM (inactive)
GI50 [15]: 3.99 µM (inactive)
GI50 [16]: 7.01 µM (inactive)
GI50 [17]: 10 µM (inactive)
GI50 [52]: 3.85 µM (inactive)
GI50 [18]: 7.1 µM (inactive)
GI50 [53]: 6.67 µM (inactive)
GI50 [54]: 5.14 µM (inactive)
GI50 [55]: 6.89 µM (inactive)
GI50 [19]: 9.46 µM
GI50 [20]: 4.72 µM (inactive)
GI50 [21]: 11.4 µM (inactive)
GI50 [56]: 10.6 µM (inactive)
GI50 [22]: 2.74 µM (inactive)
GI50 [1]: 9.66 µM (inactive)
GI50 [23]: 9.25 µM (inactive)
GI50 [24]: 12.8 µM (inactive)
GI50 [2]: 10.7 µM (inactive)
GI50 [25]: 3.15 µM (inactive)
GI50 [27]: 12.5 µM (inactive)
GI50 [28]: 11.6 µM (inactive)
GI50 [57]: 12.4 µM (inactive)
GI50 [29]: 10.8 µM (inactive)
GI50 [3]: 3.45 µM (inactive)
GI50 [32]: 6.04 µM (inactive)
GI50 [33]: > 10 µM (inactive)
GI50 [34]: 4.08 µM (inactive)
GI50 [58]: 12.2 µM (inactive)
GI50 [59]: 11.1 µM (inactive)
GI50 [35]: 6.92 µM (inactive)
GI50 [36]: 7.45 µM (inactive)
GI50 [37]: 11.1 µM (inactive)
GI50 [60]: 6.61 µM (inactive)
GI50 [38]: 10.9 µM (inactive)
GI50 [39]: 11.9 µM (inactive)
GI50 [5]: 11.6 µM (inactive)
GI50 [40]: 10.1 µM (inactive)
GI50 [61]: 3.61 µM (inactive)
GI50 [42]: 12.9 µM (inactive)
GI50 [62]: > 10 µM (inactive)
GI50 [63]: 10.4 µM (inactive)
GI50 [43]: 2.88 µM (inactive)
GI50 [44]: 13.1 µM (inactive)
GI50 [64]: 5.18 µM (inactive)
GI50 [45]: 8.69 µM (inactive)
GI50 [46]: 10.7 µM (inactive)
GI50 [65]: 12.6 µM (inactive)
GI50 [48]: 12.5 µM (inactive)
GI50 [66]: 2.04 µM (inactive)
